Reference: article PMC4311625, “Structural determinants for binding to angiotensin converting enzyme 2 (ACE2) and angiotensin receptors 1 and 2” (Frontiers in Pharmacology, 2015)
Peptide text beside a SMILES is read from it.

Biological target: ACE2 (Homo sapiens, UniProt Q9BYF1)
Assay: ACE2 quenched fluorescence substrate (QFS) inhibition assay
Format: biochemical
Conditions: pH 6.5, read-out: ACE2 inhibition of terminally modified IHPF analogs, 100 μM (Table 3)
Description: Angiotensin converting enzyme 2 QFS assays were performed for 1 h in 50 uM QFS, 1 M NaCl, 100 mM Tris-Cl, pH 6.5 at 37∘C on a BMG LabTechnologies (Offenburg, Germany), FLUOStar Optima in a 96 well-plate. Subsequent data analysis determined the inhibition of native AngII, its analogs and C-terminal peptides compared to the ACE2 QFS substrate [MCA-APK(DNP)-OH, [Vickers et al., 2002]]. […] Three controls were included in each ACE2 QFS assay; AngII (100 and 10 μM), IHPF (100 μM) and a known ACE2 inhibitor (1 nM; Millennium Pharmaceuticals, Cambridge, MA, USA). QFS assay results were accepted when ACE2 inhibition by AngII (10 μM) was 80 ± 5%, IHPF was 65 ± –5% and the ([Qian et al., 1999]) ‘Millennium Inhibitor’ was 70 ± –5%. Acceptable coefficients of variation (CV; standard deviation/mean × 100) for sample triplicates were <7%.
A library of 40 tetrapeptides based on the four C-terminal residues of Ang II (Ile-His-Pro-Phe/IHPF) was generated and screened for ACE2 binding at 100 μM in order to identify key residues of the C-terminus of Ang II involved in binding to the ACE2 active site. […] Several substitutions (Val, Tyr, Ala, Gly, Phe, Trp, Pro, His, Ile, and Leu) were made in order to further probe the highly hydrophobic and cyclic specificity of the C-terminus of Ang II. A β-napthalene amino acid (Nth) derivative was used as a highly hydrophobic non-natural cyclic residue substitute, and Arg and Lys were substituted for histidine at the second position from the N-terminus of the tetrapeptide to determine if positive charge or other structural or positional requirements were important.

Chain of ACE2 (Q9BYF1 18-805, species assumed): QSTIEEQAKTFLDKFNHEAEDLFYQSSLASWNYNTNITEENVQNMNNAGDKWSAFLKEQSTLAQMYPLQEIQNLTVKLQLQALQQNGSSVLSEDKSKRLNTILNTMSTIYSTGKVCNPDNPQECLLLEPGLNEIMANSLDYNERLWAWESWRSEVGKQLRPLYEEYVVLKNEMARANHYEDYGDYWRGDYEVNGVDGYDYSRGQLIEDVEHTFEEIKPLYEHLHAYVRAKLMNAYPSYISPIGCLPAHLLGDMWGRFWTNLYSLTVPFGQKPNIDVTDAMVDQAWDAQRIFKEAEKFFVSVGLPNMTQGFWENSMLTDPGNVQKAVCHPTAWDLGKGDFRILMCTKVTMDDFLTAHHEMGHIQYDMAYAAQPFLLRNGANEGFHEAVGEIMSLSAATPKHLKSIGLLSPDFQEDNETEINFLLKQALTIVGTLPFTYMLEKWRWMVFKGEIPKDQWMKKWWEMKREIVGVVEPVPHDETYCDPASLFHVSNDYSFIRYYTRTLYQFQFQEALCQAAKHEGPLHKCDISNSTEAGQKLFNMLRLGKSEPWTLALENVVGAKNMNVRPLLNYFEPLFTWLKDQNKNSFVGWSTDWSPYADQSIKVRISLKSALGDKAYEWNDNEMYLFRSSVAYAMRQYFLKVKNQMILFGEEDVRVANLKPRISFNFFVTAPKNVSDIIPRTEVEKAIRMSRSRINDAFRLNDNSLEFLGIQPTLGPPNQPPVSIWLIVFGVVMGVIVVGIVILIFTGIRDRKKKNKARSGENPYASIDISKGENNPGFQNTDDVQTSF

| SMILES | inhibition at 100 µM [%] |
| --- | --- |
| CC[C@H](C)[C@H](N)C(=O)N[C@@H](Cc1ccc(O)cc1)C(=O)N1CCC[C@H]1C(=O)N[C@@H](Cc1ccccc1)C(N)=O [C-amidated IYPF] (H-IYPF-NH2) | 8 |
| NC(=O)[C@H](Cc1ccccc1)NC(=O)[C@@H]1CCCN1C(=O)[C@H](Cc1ccc(O)cc1)NC(=O)[C@@H]1CCCN1 [C-amidated PYPF] (H-PYPF-NH2) | 33 |
| CC(C)[C@H](N)C(=O)N[C@@H](Cc1ccc(O)cc1)C(=O)N1CCC[C@H]1C(=O)N[C@@H](Cc1ccccc1)C(N)=O [C-amidated VYPF] (H-VYPF-NH2) | 25 |

Same assay, conditions: peptide 100 μM; 50 uM QFS MCA-APK(DNP)-OH, 1 M NaCl, 100 mM Tris-Cl pH 6.5, 37 °C, 1 h, fluorescence; triplicate; read-out: ACE2 inhibition of single substitution analogs of the C-terminal of AngII (Table 1)

| SMILES | inhibition at 100 µM [%] |
| --- | --- |
| C[C@H](N)C(=O)N[C@@H](Cc1c[nH]cn1)C(=O)N1CCC[C@H]1C(=O)N[C@@H](Cc1ccccc1)C(=O)O [AHPF] (H-AHPF-OH) | 59 |
| N[C@@H](Cc1ccccc1)C(=O)N[C@@H](Cc1c[nH]cn1)C(=O)N1CCC[C@H]1C(=O)N[C@@H](Cc1ccccc1)C(=O)O [FHPF] (H-FHPF-OH) | 48 |
| NCC(=O)N[C@@H](Cc1c[nH]cn1)C(=O)N1CCC[C@H]1C(=O)N[C@@H](Cc1ccccc1)C(=O)O [GHPF] (H-GHPF-OH) | 0 |
| N[C@@H](Cc1c[nH]cn1)C(=O)N[C@@H](Cc1c[nH]cn1)C(=O)N1CCC[C@H]1C(=O)N[C@@H](Cc1ccccc1)C(=O)O [HHPF] (H-HHPF-OH) | 12 |
| CC[C@H](C)[C@H](N)C(=O)N[C@@H](C)C(=O)N1CCC[C@H]1C(=O)N[C@@H](Cc1ccccc1)C(=O)O [IAPF] (H-IAPF-OH) | 37 |
| CC[C@H](C)[C@H](N)C(=O)N[C@@H](Cc1ccccc1)C(=O)N1CCC[C@H]1C(=O)N[C@@H](Cc1ccccc1)C(=O)O [IFPF] (H-IFPF-OH) | 0 |
| CC[C@H](C)[C@H](N)C(=O)NCC(=O)N1CCC[C@H]1C(=O)N[C@@H](Cc1ccccc1)C(=O)O [IGPF] (H-IGPF-OH) | 39 |
| CC[C@H](C)[C@H](N)C(=O)N[C@@H](Cc1c[nH]cn1)C(=O)N[C@@H](C)C(=O)N[C@@H](Cc1ccccc1)C(=O)O [IHAF] (H-IHAF-OH) | 19 |
| CC[C@H](C)[C@H](N)C(=O)N[C@@H](Cc1c[nH]cn1)C(=O)N[C@@H](Cc1ccccc1)C(=O)N[C@@H](Cc1ccccc1)C(=O)O [IHFF] (H-IHFF-OH) | 0 |
| CC[C@H](C)[C@H](N)C(=O)N[C@@H](Cc1c[nH]cn1)C(=O)NCC(=O)N[C@@H](Cc1ccccc1)C(=O)O [IHGF] (H-IHGF-OH) | 0 |
| CC[C@H](C)[C@H](N)C(=O)N[C@@H](Cc1c[nH]cn1)C(=O)N[C@@H](Cc1c[nH]cn1)C(=O)N[C@@H](Cc1ccccc1)C(=O)O [IHHF] (H-IHHF-OH) | 14 |
| CC[C@H](C)[C@H](N)C(=O)N[C@@H](Cc1c[nH]cn1)C(=O)N[C@H](C(=O)N[C@@H](Cc1ccccc1)C(=O)O)[C@@H](C)CC [IHIF] (H-IHIF-OH) | 44 |
| CC[C@H](C)[C@H](N)C(=O)N[C@@H](Cc1c[nH]cn1)C(=O)N[C@@H](CC(C)C)C(=O)N[C@@H](Cc1ccccc1)C(=O)O [IHLF] (H-IHLF-OH) | 0 |
| CC[C@H](C)[C@H](N)C(=O)N[C@@H](Cc1c[nH]cn1)C(=O)N1CCC[C@H]1C(=O)N[C@@H](C)C(=O)O [IHPA] (H-IHPA-OH) | 44 |
| CC[C@H](C)[C@H](N)C(=O)N[C@@H](Cc1c[nH]cn1)C(=O)N1CCC[C@H]1C(=O)N[C@@H](Cc1ccccc1)C(=O)O [IHPF, Ile-His-Pro-Phe, reference compound] (H-IHPF-OH) | 62 |
| CC[C@H](C)[C@H](N)C(=O)N[C@@H](Cc1c[nH]cn1)C(=O)N1CCC[C@H]1C(=O)NCC(=O)O [IHPG] (H-IHPG-OH) | 41 |

| SMILES | inhibition at 100 µM [%] |
| --- | --- |
| CC[C@H](C)[C@H](N)C(=O)N[C@@H](Cc1c[nH]cn1)C(=O)N1CCC[C@H]1C(=O)N[C@@H](Cc1c[nH]cn1)C(=O)O [IHPH] (H-IHPH-OH) | 54 |
| CC[C@H](C)[C@H](N)C(=O)N[C@@H](Cc1c[nH]cn1)C(=O)N1CCC[C@H]1C(=O)N[C@H](C(=O)O)[C@@H](C)CC [IHPI] (H-IHPI-OH) | 36 |
| CC[C@H](C)[C@H](N)C(=O)N[C@@H](Cc1c[nH]cn1)C(=O)N1CCC[C@H]1C(=O)N[C@@H](CC(C)C)C(=O)O [IHPL] (H-IHPL-OH) | 48 |
| CC[C@H](C)[C@H](N)C(=O)N[C@@H](Cc1c[nH]cn1)C(=O)N1CCC[C@H]1C(=O)N[C@H](C(=O)O)C(C)C [IHPV] (H-IHPV-OH) | 18 |
| CC[C@H](C)[C@H](N)C(=O)N[C@@H](Cc1c[nH]cn1)C(=O)N1CCC[C@H]1C(=O)N[C@@H](Cc1c[nH]c2ccccc12)C(=O)O [IHPW] (H-IHPW-OH) | 57 |
| CC[C@H](C)[C@H](N)C(=O)N[C@@H](Cc1c[nH]cn1)C(=O)N1CCC[C@H]1C(=O)N[C@@H](Cc1ccc(O)cc1)C(=O)O [IHPY] (H-IHPY-OH) | 50 |
| CC[C@H](C)[C@H](N)C(=O)N[C@@H](Cc1c[nH]cn1)C(=O)N[C@H](C(=O)N[C@@H](Cc1ccccc1)C(=O)O)C(C)C [IHVF] (H-IHVF-OH) | 77 |
| CC[C@H](C)[C@H](N)C(=O)N[C@@H](Cc1c[nH]cn1)C(=O)N[C@@H](Cc1c[nH]c2ccccc12)C(=O)N[C@@H](Cc1ccccc1)C(=O)O [IHWF] (H-IHWF-OH) | 0 |
| CC[C@H](C)[C@H](N)C(=O)N[C@@H](Cc1c[nH]cn1)C(=O)N[C@@H](Cc1ccc(O)cc1)C(=O)N[C@@H](Cc1ccccc1)C(=O)O [IHYF] (H-IHYF-OH) | 1 |
| CC[C@H](C)[C@H](N)C(=O)N[C@H](C(=O)N1CCC[C@H]1C(=O)N[C@@H](Cc1ccccc1)C(=O)O)[C@@H](C)CC [IIPF] (H-IIPF-OH) | 32 |
| CC[C@H](C)[C@H](N)C(=O)N[C@@H](CCCCN)C(=O)N1CCC[C@H]1C(=O)N[C@@H](Cc1ccccc1)C(=O)O [IKPF] (H-IKPF-OH) | 28 |
| CC[C@H](C)[C@H](N)C(=O)N1CCC[C@H]1C(=O)N1CCC[C@H]1C(=O)N[C@@H](Cc1ccccc1)C(=O)O [IPPF] (H-IPPF-OH) | 0 |
| CC[C@H](C)[C@H](N)C(=O)N[C@@H](CCCNC(=N)N)C(=O)N1CCC[C@H]1C(=O)N[C@@H](Cc1ccccc1)C(=O)O [IRPF] (H-IRPF-OH) | 33 |
| CC[C@H](C)[C@H](N)C(=O)N[C@H](C(=O)N1CCC[C@H]1C(=O)N[C@@H](Cc1ccccc1)C(=O)O)C(C)C [IVPF] (H-IVPF-OH) | 28 |
| CC[C@H](C)[C@H](N)C(=O)N[C@@H](Cc1c[nH]c2ccccc12)C(=O)N1CCC[C@H]1C(=O)N[C@@H](Cc1ccccc1)C(=O)O [IWPF] (H-IWPF-OH) | 40 |
| CC[C@H](C)[C@H](N)C(=O)N[C@@H](Cc1ccc(O)cc1)C(=O)N1CCC[C@H]1C(=O)N[C@@H](Cc1ccccc1)C(=O)O [IYPF] (H-IYPF-OH) | 87 |

Same assay, conditions: peptide 100 μM; 50 uM QFS, 1 M NaCl, 100 mM Tris-Cl pH 6.5, 37 °C, 1 h; triplicate; read-out: Inhibition (%) of ACE2, single and multiple residue substitution analogs (Table 2)

| SMILES | inhibition at 100 µM [%] |
| --- | --- |
| CC[C@H](C)[C@H](N)C(=O)N[C@@H](Cc1c[nH]cn1)C(=O)N[C@H](C(=O)N[C@@H](Cc1ccccc1)C(=O)O)C(C)C [IHVF] (H-IHVF-OH) | 77 |
| CC[C@H](C)[C@H](N)C(=O)N[C@@H](Cc1ccc(O)cc1)C(=O)N[C@H](C(=O)N[C@@H](Cc1ccccc1)C(=O)O)C(C)C [IYVF] (H-IYVF-OH) | 77 |

Same assay, conditions: read-out: ACE2 inhibition of terminally modified IHPF analogs, 10 μM (Table 3, in brackets); peptide 10 μM; 50 uM QFS, 1 M NaCl, 100 mM Tris-Cl pH 6.5, 37 °C, 1 h

| SMILES | inhibition at 10 µM [%] |
| --- | --- |
| CC(C)[C@H](N)C(=O)N[C@@H](Cc1c[nH]cn1)C(=O)N[C@H](C(=O)N[C@@H](Cc1ccccc1)C(N)=O)C(C)C [C-amidated VHVF] (H-VHVF-NH2) | 40 |
| CC[C@H](C)[C@H](N)C(=O)N[C@@H](Cc1c[nH]cn1)C(=O)N1CCC[C@H]1C(=O)N[C@@H](Cc1ccccc1)C(=O)O [IHPF, Ile-His-Pro-Phe, reference compound] (H-IHPF-OH) | 22 |
| CC[C@H](C)[C@H](N)C(=O)N[C@@H](Cc1ccc(O)cc1)C(=O)N1CCC[C@H]1C(=O)N[C@@H](Cc1ccccc1)C(=O)O [IYPF] (H-IYPF-OH) | 35 |

Same assay, conditions: read-out: ACE2 inhibition of terminally modified IHPF analogs, 100 μM (Table 3); peptide 100 μM; 50 uM QFS, 1 M NaCl, 100 mM Tris-Cl pH 6.5, 37 °C, 1 h

| SMILES | inhibition at 100 µM [%] |
| --- | --- |
| CC[C@H](C)[C@H](N)C(=O)N[C@@H](Cc1c[nH]cn1)C(=O)N1CCC[C@H]1C(=O)N[C@@H](Cc1ccccc1)C(N)=O [C-amidated IHPF] (H-IHPF-NH2) | 18 |
| NC(=O)[C@H](Cc1ccccc1)NC(=O)[C@@H]1CCCN1C(=O)[C@H](Cc1c[nH]cn1)NC(=O)[C@@H]1CCCN1 [C-amidated PHPF] (H-PHPF-NH2) | 1 |
| CC(C)[C@H](NC(=O)[C@H](Cc1c[nH]cn1)NC(=O)[C@@H]1CCCN1)C(=O)N[C@@H](Cc1ccccc1)C(N)=O [C-amidated PHVF] (H-PHVF-NH2) | 12 |
| CC(C)[C@H](NC(=O)[C@H](Cc1ccc(O)cc1)NC(=O)[C@@H]1CCCN1)C(=O)N[C@@H](Cc1ccccc1)C(N)=O [C-amidated PYVF] (H-PYVF-NH2) | 26 |
| CC(C)[C@H](N)C(=O)N[C@@H](Cc1c[nH]cn1)C(=O)N[C@H](C(=O)N[C@@H](Cc1ccccc1)C(N)=O)C(C)C [C-amidated VHVF] (H-VHVF-NH2) | 86 |
| CC[C@H](C)[C@H](N)C(=O)N[C@@H](Cc1c[nH]cn1)C(=O)N1CCC[C@H]1C(=O)N[C@@H](Cc1ccccc1)C(=O)O [IHPF, Ile-His-Pro-Phe, reference compound] (H-IHPF-OH) | 66 |
| CC[C@H](C)[C@H](N)C(=O)N[C@@H](Cc1ccc(O)cc1)C(=O)N1CCC[C@H]1C(=O)N[C@@H](Cc1ccccc1)C(=O)O [IYPF] (H-IYPF-OH) | 84 |
